{
  "source": "ChEMBL document CHEMBL5331124",
  "about": "“Degradation of Hexokinase 2 Blocks Glycolysis and Induces GSDME-Dependent Pyroptosis to Amplify Immunogenic Cell Death for Breast Cancer Therapy” (J Med Chem, 2023)",
  "key": {"[1]": {"molecular_target": "Protein cereblon/Hexokinase-2 (Mus musculus) (UniProt O08528+Q8C7D2)", "sequence (O08528 whole entry, looked up)": "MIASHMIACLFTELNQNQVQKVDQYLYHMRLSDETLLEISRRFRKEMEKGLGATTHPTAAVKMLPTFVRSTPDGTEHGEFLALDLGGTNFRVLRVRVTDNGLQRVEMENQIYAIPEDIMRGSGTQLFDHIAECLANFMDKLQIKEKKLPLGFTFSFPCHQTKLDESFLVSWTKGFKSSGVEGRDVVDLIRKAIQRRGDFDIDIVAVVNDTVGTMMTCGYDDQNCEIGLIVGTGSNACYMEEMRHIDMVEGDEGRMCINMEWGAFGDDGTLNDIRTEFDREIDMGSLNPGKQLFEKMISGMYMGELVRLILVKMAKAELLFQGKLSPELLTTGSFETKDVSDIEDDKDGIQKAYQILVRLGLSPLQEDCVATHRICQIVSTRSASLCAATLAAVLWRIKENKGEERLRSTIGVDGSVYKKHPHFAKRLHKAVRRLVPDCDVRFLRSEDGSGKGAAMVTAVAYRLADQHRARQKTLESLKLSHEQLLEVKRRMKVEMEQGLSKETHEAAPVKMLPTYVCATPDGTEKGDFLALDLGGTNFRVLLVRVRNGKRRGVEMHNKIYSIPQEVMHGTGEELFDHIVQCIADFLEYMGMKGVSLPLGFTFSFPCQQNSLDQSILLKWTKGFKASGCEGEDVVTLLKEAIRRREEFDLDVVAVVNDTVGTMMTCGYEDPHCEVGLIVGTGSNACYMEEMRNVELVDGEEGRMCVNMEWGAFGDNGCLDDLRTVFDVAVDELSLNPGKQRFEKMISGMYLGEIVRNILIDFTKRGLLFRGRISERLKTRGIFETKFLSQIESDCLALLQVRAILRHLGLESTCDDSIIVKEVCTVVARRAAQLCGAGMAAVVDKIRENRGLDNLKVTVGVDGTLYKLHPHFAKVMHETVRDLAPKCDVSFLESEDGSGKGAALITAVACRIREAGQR", "sequence (Q8C7D2 whole entry, looked up)": "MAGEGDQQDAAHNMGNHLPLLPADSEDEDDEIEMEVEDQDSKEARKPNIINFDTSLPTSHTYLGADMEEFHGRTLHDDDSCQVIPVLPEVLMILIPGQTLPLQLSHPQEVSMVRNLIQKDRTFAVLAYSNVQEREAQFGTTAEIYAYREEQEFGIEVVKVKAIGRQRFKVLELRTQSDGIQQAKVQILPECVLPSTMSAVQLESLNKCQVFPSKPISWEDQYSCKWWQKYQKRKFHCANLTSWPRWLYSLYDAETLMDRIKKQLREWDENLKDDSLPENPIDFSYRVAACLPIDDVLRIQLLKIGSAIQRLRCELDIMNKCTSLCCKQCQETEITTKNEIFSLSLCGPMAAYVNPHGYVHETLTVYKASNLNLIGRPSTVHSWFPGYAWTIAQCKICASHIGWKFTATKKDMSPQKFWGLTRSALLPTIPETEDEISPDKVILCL", "experiment": "PROTAC activity at CRBN/HK2 in mouse 4T1 cells assessed as […] ternary complex formation at 10 uM incubated for 24 hrs in presence of MG132", "format": "cell-based"}, "[2]": {"experiment": "Toxicity in BALB/c mouse implanted with mouse 4T1 cells assessed as pathological changes in lung at 50 mg/kg, ip measured after 25 days in presence of cisplatin by Hematoxylin -eosin staining based analysis", "format": "organism-based", "conditions": "in vivo, 600 h, time 25 day"}, "[3]": {"tested_on": "4T1", "experiment": "Induction of pyroptosis in mouse 4T1 cells assessed as increase in N-terminal GSDME level at 20 uM incubated for 36 hrs", "format": "functional, cell-based"}, "[4]": {"experiment": "Toxicity in BALB/c mouse implanted with mouse 4T1 cells assessed as effect on hemoglobin level at 50 mg/kg, ip measured after 25 days in presence of cisplatin by routine blood test", "format": "organism-based", "conditions": "in vivo, 600 h, time 25 day"}, "[5]": {"tested_on": "MDA-MB-231", "experiment": "Induction of pyroptosis in human MDA-MB-231 cells assessed as decrease in full length GSDME level at 20 uM incubated for 36 hrs by Western blot analysis", "format": "functional, cell-based"}, "[6]": {"tested_on": "4T1", "experiment": "Antitumor immunity activity against mouse 4T1 cells implanted in BALB/c mouse assessed as increase in proportion of […] positive T cells in tumor by flow cytometry analysis", "format": "functional, cell-based"}, "[7]": {"experiment": "Toxicity in BALB/c nude mouse xenografted with human MDA-MB-231 cells assessed as effect on red blood cells at 50 mg/kg, ip measured after 30 days by routine blood test", "format": "organism-based", "conditions": "in vivo, 720 h, time 30 day"}, "[8]": {"experiment": "Cytotoxicity against human HUVEC-T1 cell assessed as inhibition of cell growth at 1 to 100 uM incubated for 48 hrs by CCK-8 assay", "format": "toxicity, cell-based", "conditions": "dose 1-100 µM"}, "[9]": {"molecular_target": "T1, Hexokinase-1 (Homo sapiens) (UniProt P19367)", "T1 sequence (whole entry)": "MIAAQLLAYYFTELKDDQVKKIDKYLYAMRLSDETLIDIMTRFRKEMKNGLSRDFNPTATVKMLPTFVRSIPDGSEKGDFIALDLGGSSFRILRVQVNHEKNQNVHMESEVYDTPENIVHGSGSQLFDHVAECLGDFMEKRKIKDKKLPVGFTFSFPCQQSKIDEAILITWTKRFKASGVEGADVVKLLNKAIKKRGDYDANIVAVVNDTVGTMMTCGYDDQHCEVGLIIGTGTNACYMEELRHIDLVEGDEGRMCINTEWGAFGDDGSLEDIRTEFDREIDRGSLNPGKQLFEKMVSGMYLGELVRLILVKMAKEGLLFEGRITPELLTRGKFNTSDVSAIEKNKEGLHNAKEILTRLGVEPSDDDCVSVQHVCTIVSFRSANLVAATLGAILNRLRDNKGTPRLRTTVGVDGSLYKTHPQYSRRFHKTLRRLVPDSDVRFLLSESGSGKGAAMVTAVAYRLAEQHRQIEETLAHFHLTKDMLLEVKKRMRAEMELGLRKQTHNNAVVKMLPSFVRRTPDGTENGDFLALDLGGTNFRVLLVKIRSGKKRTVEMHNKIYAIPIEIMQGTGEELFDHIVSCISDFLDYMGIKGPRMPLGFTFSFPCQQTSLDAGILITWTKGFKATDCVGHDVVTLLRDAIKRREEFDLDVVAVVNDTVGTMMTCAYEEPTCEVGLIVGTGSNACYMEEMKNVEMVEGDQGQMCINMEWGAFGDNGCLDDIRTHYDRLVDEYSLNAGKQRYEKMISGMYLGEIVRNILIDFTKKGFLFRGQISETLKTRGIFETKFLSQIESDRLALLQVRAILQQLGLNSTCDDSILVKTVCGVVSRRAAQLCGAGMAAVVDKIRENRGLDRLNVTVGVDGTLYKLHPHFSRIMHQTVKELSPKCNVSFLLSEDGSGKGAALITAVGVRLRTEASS", "experiment": "Induction of HK1 degradation in human MDA-MB-231 cells at 20 uM measured for 36 hrs by Western blot analysis", "format": "cell-based"}, "[10]": {"experiment": "Toxicity in BALB/c mouse implanted with mouse 4T1 cells assessed as pathological changes in lung at 50 mg/kg, ip measured after 25 days by Hematoxylin -eosin staining based analysis", "format": "organism-based", "conditions": "in vivo, 600 h, time 25 day"}, "[11]": {"tested_on": "4T1", "experiment": "Antitumor immunity against mouse 4T1 cells implanted in BALB/c mouse model assessed as increase in N-terminal GSDME expression in tumor", "format": "functional, cell-based"}, "[12]": {"tested_on": "4T1", "experiment": "Upregulation of PD-L1 expression in mouse 4T1 cells cytoplasm at 20 uM measured for 36 hrs", "format": "functional, subcellular"}, "[13]": {"experiment": "Toxicity in BALB/c mouse implanted with mouse 4T1 cells assessed as effect on platelet count at 50 mg/kg, ip measured after 25 days in presence of cisplatin by routine blood test", "format": "organism-based", "conditions": "in vivo, 600 h, time 25 day"}, "[14]": {"molecular_target": "T2, Hexokinase-2 (Homo sapiens) (UniProt P52789)", "T2 sequence (whole entry)": "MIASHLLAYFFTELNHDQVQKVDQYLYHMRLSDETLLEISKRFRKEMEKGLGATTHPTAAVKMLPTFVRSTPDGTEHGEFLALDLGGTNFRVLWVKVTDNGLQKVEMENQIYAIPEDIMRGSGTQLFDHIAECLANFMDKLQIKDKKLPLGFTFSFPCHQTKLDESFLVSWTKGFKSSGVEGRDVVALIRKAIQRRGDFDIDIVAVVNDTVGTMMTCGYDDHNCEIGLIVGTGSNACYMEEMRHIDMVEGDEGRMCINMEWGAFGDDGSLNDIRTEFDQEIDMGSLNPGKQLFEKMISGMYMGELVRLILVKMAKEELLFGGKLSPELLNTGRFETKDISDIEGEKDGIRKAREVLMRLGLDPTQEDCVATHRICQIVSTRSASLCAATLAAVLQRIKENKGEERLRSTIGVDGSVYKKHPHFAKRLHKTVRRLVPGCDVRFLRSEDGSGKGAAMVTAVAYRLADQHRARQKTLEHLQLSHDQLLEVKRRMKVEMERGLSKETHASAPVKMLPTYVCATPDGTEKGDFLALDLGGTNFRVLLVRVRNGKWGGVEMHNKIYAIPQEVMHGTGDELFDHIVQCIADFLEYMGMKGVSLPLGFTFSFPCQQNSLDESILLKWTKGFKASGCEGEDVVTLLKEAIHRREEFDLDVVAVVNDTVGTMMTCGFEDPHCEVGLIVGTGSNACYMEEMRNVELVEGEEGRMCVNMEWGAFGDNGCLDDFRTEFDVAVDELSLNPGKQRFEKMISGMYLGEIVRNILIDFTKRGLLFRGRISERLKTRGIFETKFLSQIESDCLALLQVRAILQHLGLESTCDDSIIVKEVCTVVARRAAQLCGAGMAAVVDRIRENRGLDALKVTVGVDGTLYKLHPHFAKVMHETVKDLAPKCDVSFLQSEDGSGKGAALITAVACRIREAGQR", "experiment": "Induction of HK2 degradation in human MDA-MB-231 cells assessed as increase in Bax expression at 20 uM measured for 36 hrs by Western blot analysis", "format": "cell-based"}, "[15]": {"tested_on": "MCF7", "experiment": "Antiproliferative activity against human MCF7 cells assessed as cell growth inhibition measured for 72 hrs by MTT assay", "format": "functional, cell-based", "conditions": "MCF7, 72 h"}, "[16]": {"tested_on": "PANC-1", "experiment": "Antiproliferative activity against human PANC-1 cells assessed as cell growth inhibition measured for 72 hrs by MTT assay", "format": "functional, cell-based", "conditions": "PANC-1, 72 h"}},
  "note": "Active and inactive are the calls of the source. The rule behind the calls is not given here.",
  "data": [
    {"compound": "O=C1CCC(N2C(=O)c3cccc(NCCCCNC(=O)c4nn(Cc5ccc(Cl)cc5Cl)c5ccccc45)c3C2=O)C(=O)N1", "note": "(stereo unspecified)", "values": [
      {"measurement": "Activity", "setting": "[1]", "result": "inactive"},
      {"measurement": "Activity", "setting": "[2]", "result": "Non-Toxic"},
      {"measurement": "Activity", "setting": "[3]", "result": "Active"},
      {"measurement": "Activity", "setting": "[4]", "result": "Non-Toxic"},
      {"measurement": "Activity", "setting": "[5]", "result": "Active"},
      {"measurement": "Activity", "setting": "[6]", "result": "Active"},
      {"measurement": "Activity", "setting": "[7]", "result": "Non-Toxic"},
      {"measurement": "Activity", "setting": "[8]", "result": "Toxic"},
      {"measurement": "Activity", "setting": "[9]", "result": "inactive"},
      {"measurement": "Activity", "setting": "[10]", "result": "Non-Toxic"},
      {"measurement": "Activity", "setting": "[11]", "result": "Active"},
      {"measurement": "Activity", "setting": "[12]", "result": "Active"},
      {"measurement": "Activity", "setting": "[13]", "result": "Non-Toxic"},
      {"measurement": "Activity", "setting": "[14]", "result": "Active"},
      {"measurement": "IC50", "setting": "[15]", "result": 21.7, "unit": "µM"},
      {"measurement": "IC50", "setting": "[16]", "result": 31.5, "unit": "µM"}
    ]}
  ]
}
